Measurements published in patent US12319672B2, “Alpha-D-galactopyranoside derivatives” (Idorsia Pharmaceuticals Ltd, priority 2019, dated 2025).
pIC50: −log10 of the molar value.

Columns and labels:
human Gal-3 (hGal-3) = human Gal-3 (hGal-3) (Homo sapiens (Human), UniProt P17931); experiment: Competitive binding assay: binding of biotinylated hGal-3 to microplate-adsorbed asialofetuin (ASF); settings: Activity on hGal-3; mean values of several measurements
Procedure, shortened: (§1)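 Compounds diluted in DMSO competed with biotinylated hGal-3 or hGal-1 (300-1000 ng/mL) for binding to plate-adsorbed asialofetuin for 3 h at 4° C. Bound galectin was detected with streptavidin-peroxidase (80 ng/mL, 1 h, 4° C) and ABTS substrate; IC50 reported as mean of several measurements.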

human Gal-1 (hGal-1) = experiment: Competitive binding assay: binding of biotinylated hGal-1 to microplate-adsorbed asialofetuin (ASF); settings: Activities on hGal-1; mean values of several measurements
Procedure, shortened: as §1

Sequence of human Gal-1 (hGal-1) (P09382 2-135 limits assumed): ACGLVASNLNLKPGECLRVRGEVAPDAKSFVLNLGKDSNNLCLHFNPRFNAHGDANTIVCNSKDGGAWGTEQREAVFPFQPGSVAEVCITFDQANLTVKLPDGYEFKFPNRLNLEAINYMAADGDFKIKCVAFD
Sequence of human Gal-3 (hGal-3) (P17931 whole entry): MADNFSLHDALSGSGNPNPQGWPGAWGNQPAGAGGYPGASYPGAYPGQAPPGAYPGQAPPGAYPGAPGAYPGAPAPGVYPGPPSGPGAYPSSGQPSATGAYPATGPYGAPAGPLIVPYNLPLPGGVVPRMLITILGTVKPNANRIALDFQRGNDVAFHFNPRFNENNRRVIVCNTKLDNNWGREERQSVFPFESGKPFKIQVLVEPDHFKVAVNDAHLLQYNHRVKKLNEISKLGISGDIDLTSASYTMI

Structure (SMILES) | pIC50 (human Gal-3 (hGal-3)) | pIC50 (human Gal-1 (hGal-1))
Cc1c(F)cccc1-c1cn([C@H]2[C@@H](O)[C@@H](CO)O[C@H](CC3CC(C4CCN(C(=O)OC(C)(C)C)CC4)=NO3)[C@@H]2O)nn1 (stereo partly drawn) [Ex 1.112] | 6.00 | 6.11
CO[C@@H]1[C@@H](n2cc(-c3ccc(Cl)c(F)c3F)nn2)[C@@H](O)[C@@H](CO)O[C@@H]1Cc1cc(C2CCOCC2)on1 [Ex 1.181] | 7.25 | 5.09
CCC(O)(CC)c1cc(C[C@H]2O[C@H](CO)[C@H](O)[C@H](n3cc(-c4ccc(C)c(F)c4F)nn3)[C@H]2OC)no1 [Ex 1.323] | 6.21 | 5.29
CO[C@@H]1[C@@H](n2cc(-c3cc(F)c(Cl)c(F)c3)nn2)[C@@H](O)[C@@H](CO)O[C@@H]1CC1CC(C2CCNCC2)=NO1 (stereo partly drawn) [Ex 1.146] | 6.62 | 5.33
CO[C@@H]1[C@@H](n2cc(-c3cccc4ccccc34)nn2)[C@@H](O)[C@@H](CO)O[C@@H]1CC1CC(C2CCN(C(=O)OC(C)(C)C)CC2)=NO1 (stereo partly drawn) [Ex 1.305] | 5.73 | 5.93
CO[C@@H]1[C@@H](n2cc(-c3cc(F)c(F)c(F)c3)nn2)[C@@H](O)[C@@H](CO)O[C@@H]1CC1=NO[C@@H](C2CCCCC2)C1 [Ex 1.128] | 6.06 | 4.81
CO[C@@H]1[C@@H](n2cc(-c3ccc(F)c(F)c3F)nn2)[C@@H](O)[C@@H](CO)O[C@@H]1Cc1cc(C(C)(CO)CCl)no1 (stereo partly drawn) [Ex 1.262] | 7.15 | 6.48
CO[C@@H]1[C@@H](n2cc(-c3cc(F)c(F)c(F)c3)nn2)[C@@H](O)[C@@H](CO)O[C@@H]1Cc1cc(C2CCCCC2)on1 [Ex 1.65] | 6.25 | 4.85
CO[C@@H]1[C@@H](n2cc(-c3cc(F)c(F)c(F)c3)nn2)[C@@H](O)[C@@H](CO)O[C@@H]1Cc1cc(C(C)(C)C(F)F)no1 [Ex 1.303] | 6.85 | 6.26
CO[C@@H]1[C@@H](n2cc(-c3cc(F)c(F)c(F)c3)nn2)[C@@H](O)[C@@H](CO)O[C@@H]1Cc1cc(C2(O)CCOCC2)on1 [Ex 1.75] | 6.40 | 5.45
CO[C@@H]1[C@@H](n2cc(-c3cc(F)c(F)c(Cl)c3)nn2)[C@@H](O)[C@@H](CO)O[C@@H]1Cc1cc(C2CCN(C(C)=O)CC2)on1 [Ex 1.219] | 7.64 | 6.37
CO[C@@H]1[C@@H](n2cc(-c3ccc(F)c(F)c3F)nn2)[C@@H](O)[C@@H](CO)O[C@@H]1Cc1cc(C2(C)CCOCC2)on1 [Ex 1.269] | 7.31 | 6.05
CO[C@@H]1[C@@H](n2cc(-c3ccc(Cl)c(F)c3)nn2)[C@@H](O)[C@@H](CO)O[C@@H]1Cc1cc(C2CCN(C(C)=O)CC2)on1 [Ex 1.165] | 7.23 | 6.17
CO[C@@H]1[C@@H](n2cc(-c3ccc(C)c(F)c3F)nn2)[C@@H](O)[C@@H](CO)O[C@@H]1Cc1cc(C(C)(O)c2ccccc2F)on1 (stereo partly drawn) [Ex 1.321] | 6.40 | 5.04
CO[C@@H]1[C@@H](n2cc(-c3ccc(C)c(F)c3F)nn2)[C@@H](O)[C@@H](CO)O[C@@H]1Cc1cc([C@@H]2C[C@H]2O)on1 [Ex 1.350] | 6.57 | 5.17
COc1ccc(-c2cc(C[C@H]3O[C@H](CO)[C@H](O)[C@H](n4cc(-c5cc(F)c(F)c(F)c5)nn4)[C@H]3O)no2)cc1 [Ex 1.296] | 5.85 | 4.28
OC[C@H]1O[C@H](CC2=NOC(Cc3ccccc3)C2)[C@H](O)[C@@H](n2cc(-c3cc(F)c(F)c(F)c3)nn2)[C@H]1O (stereo partly drawn) [Ex 1.36] | 5.60 | 4.96
CO[C@@H]1[C@@H](n2cc(-c3cc(F)c(C)c(F)c3)nn2)[C@@H](O)[C@@H](CO)O[C@@H]1Cc1cc(C2CCCCC2)on1 [Ex 1.170] | 6.40 | < 4.00
CCC1(c2cc(C[C@H]3O[C@H](CO)[C@H](O)[C@H](n4cc(-c5cc(F)c(F)c(F)c5)nn4)[C@H]3OC)on2)COC1 [Ex 1.212] | 6.80 | 5.80
CO[C@@H]1[C@@H](n2cc(-c3ccc(C)c(F)c3F)nn2)[C@@H](O)[C@@H](CO)O[C@@H]1Cc1cc(C2CCCC2)on1 [Ex 1.240] | 7.00 | 4.86
CO[C@@H]1[C@@H](n2cc(-c3ccc(Cl)c(F)c3)nn2)[C@@H](O)[C@@H](CO)O[C@@H]1Cc1cc(C2CCOCC2)on1 [Ex 1.183] | 6.55 | 5.28
CO[C@@H]1[C@@H](n2cc(-c3ccc(Cl)c(F)c3)nn2)[C@@H](O)[C@@H](CO)O[C@@H]1Cc1cc(C2CCCCC2)on1 [Ex 1.174] | 6.05 | 4.73
CO[C@@H]1[C@@H](n2cc(-c3ccc(Br)c(F)c3)nn2)[C@@H](O)[C@@H](CO)O[C@@H]1Cc1cc(C2CCN(C(=O)OC(C)(C)C)CC2)no1 [Ex 1.125] | 6.85 | 6.00

Results, then the compound that gave them:

pIC50 (human Gal-3 (hGal-3)) | pIC50 (human Gal-1 (hGal-1)) | Structure (SMILES)
7.62 | 5.28 | Cc1ccc(-c2cn([C@H]3[C@@H](O)[C@@H](CO)O[C@H](Cc4cc(C(C)(C)C)on4)[C@@H]3OCC(=O)O)nn2)c(F)c1F [Example 2.27, 2-(((2R,3R,4S,5R,6R)-2-((5-(tert-butyl)isoxazol-3-yl)methyl)-4-(4-(2,3-difluoro-4-methylphenyl)-1H-1,2,3-triazol-1-yl)-5-hydroxy-6-(hydroxymethyl)tetrahydro-2H-pyran-3-yl)oxy)acetic acid]
7.77 | 5.63 | CO[C@@H]1[C@@H](n2cc(-c3cc(F)c(F)c(F)c3)nn2)[C@@H](O)[C@@H](CO)O[C@@H]1Cc1cc(C2CCC(NC(=O)[C@@H](NC(=O)OC(C)(C)C)C(C)C)CC2)no1 (stereo partly drawn) [Example 2.29, tert-butyl ((S)-1-(((1R,4S)-4-(5-(((2R,3R,4S,5R,6R)-5-hydroxy-6-(hydroxymethyl)-3-methoxy-4-(4-(3,4,5-trifluorophenyl)-1H-1,2,3-triazol-1-yl)tetrahydro-2H-pyran-2-yl)methyl)isoxazol-3-yl)cyclohexyl)amino)-3-methyl-1-oxobutan-2-yl)carbamate]
7.23 | 5.17 | CO[C@@H]1[C@@H](n2cc(-c3cc(F)c(F)c(F)c3)nn2)[C@@H](O)[C@@H](CO)O[C@@H]1CN1CC(=O)N(C2CCCCC2)C1 [Example 6.09, 3-cyclohexyl-1-(((2R,3R,4S,5R,6R)-5-hydroxy-6-(hydroxymethyl)-3-methoxy-4-(4-(3,4,5-trifluorophenyl)-1H-1,2,3-triazol-1-yl)tetrahydro-2H-pyran-2-yl)methyl)imidazolidin-4-one]
7.36 | 6.15 | CO[C@@H]1[C@@H](n2cc(-c3cc(F)c(F)c(F)c3)nn2)[C@@H](O)[C@@H](CO)O[C@@H]1Cn1cc(C2CCN(C(C)=O)CC2)nn1 [Example 4.04, 1-(4-(1-(((2R,3R,4S,5R,6R)-5-hydroxy-6-(hydroxymethyl)-3-methoxy-4-(4-(3,4,5-trifluorophenyl)-1H-1,2,3-triazol-1-yl)tetrahydro-2H-pyran-2-yl)methyl)-1H-1,2,3-triazol-4-yl)piperidin-1-yl)ethan-1-one]
6.10 | 5.58 | CO[C@@H]1[C@@H](n2cc(-c3cc(F)c(F)c(F)c3)nn2)[C@@H](O)[C@@H](CO)O[C@@H]1Cn1cc(C2=CCCC2)nn1 [Example 4.42, (2R,3R,4S,5R,6R)-6-((4-(cyclopent-1-en-1-yl)-1H-1,2,3-triazol-1-yl)methyl)-2-(hydroxymethyl)-5-methoxy-4-(4-(3,4,5-trifluorophenyl)-1H-1,2,3-triazol-1-yl)tetrahydro-2H-pyran-3-ol]
7.01 | 5.96 | CCNC(=O)N1CCC(c2cc(C[C@H]3O[C@H](CO)[C@H](O)[C@H](n4cc(-c5cc(F)c(F)c(F)c5)nn4)[C@H]3OC)no2)CC1 [Example 3.37, N-ethyl-4-(3-(((2R,3R,4S,5R,6R)-5-hydroxy-6-(hydroxymethyl)-3-methoxy-4-(4-(3,4,5-trifluorophenyl)-1H-1,2,3-triazol-1-yl)tetrahydro-2H-pyran-2-yl)methyl)isoxazol-5-yl)piperidine-1-carboxamide]
6.72 | 6.41 | O=c1cc(C2=NO[C@H](C[C@H]3O[C@H](CO)[C@H](O)[C@H](n4cc(-c5cc(F)c(F)c(F)c5)nn4)[C@H]3O)C2)cc[nH]1 [Example 2.05, 4-((S)-5-(((2R,3R,4R,5R,6R)-3,5-dihydroxy-6-(hydroxymethyl)-4-(4-(3,4,5-trifluorophenyl)-1H-1,2,3-triazol-1-yl)tetrahydro-2H-pyran-2-yl)methyl)-4,5-dihydroisoxazol-3-yl)pyridin-2(1H)-one]
7.35 | 6.11 | CO[C@@H]1[C@@H](n2cc(-c3cc(F)c(F)c(F)c3)nn2)[C@@H](O)[C@@H](CO)O[C@@H]1Cn1cc(C2CCN(S(=O)(=O)C(C)C)CC2)nn1 [Example 4.22, (2R,3R,4S,5R,6R)-2-(hydroxymethyl)-6-((4-(1-(isopropylsulfonyl)piperidin-4-yl)-1H-1,2,3-triazol-1-yl)methyl)-5-methoxy-4-(4-(3,4,5-trifluorophenyl)-1H-1,2,3-triazol-1-yl)tetrahydro-2H-pyran-3-ol]
7.40 | 6.29 | CC1(c2cc(C[C@H]3O[C@H](CO)[C@H](O)[C@H](n4cc(-c5ccc(F)c(F)c5F)nn4)[C@H]3OCC(=O)O)on2)CC1 [Example 2.44, 2-(((2R,3R,4S,5R,6R)-5-hydroxy-6-(hydroxymethyl)-2-((3-(1-methylcyclopropyl)isoxazol-5-yl)methyl)-4-(4-(2,3,4-trifluorophenyl)-1H-1,2,3-triazol-1-yl)tetrahydro-2H-pyran-3-yl)oxy)acetic acid]
6.72 | 5.44 | O=C1CCC(c2cc(C[C@H]3O[C@H](CO)[C@H](O)[C@H](n4cc(-c5cc(F)c(F)c(F)c5)nn4)[C@H]3O)no2)CC1 [Example 2.12, 4-(3-(((2R,3R,4R,5R,6R)-3,5-dihydroxy-6-(hydroxymethyl)-4-(4-(3,4,5-trifluorophenyl)-1H-1,2,3-triazol-1-yl)tetrahydro-2H-pyran-2-yl)methyl)isoxazol-5-yl)cyclohexan-1-one]
